In series [1] the test system is HMC1.1 cells. Briefly: MTS proliferation assay with small-molecule kinase inhibitors, HMC1.1 cells. It counts as cell-based, human. The conditions noted are these: for IC50: 72 hours, MTS assay. As to the method:
(§1) K562 cells were obtained from American Type Culture Collection (Manassas, Va.). CMK and HEL cells were obtained from the German National Resource Centre for Biological Material (DSMZ). […] For proliferation assays, cells were incubated for 72 hours in the presence of JAK Inhibitor I, JAK3 inhibitor III, AG-490, PP2, or Src Kinase Inhibitor I (EMD BIOSCIENCES®, San Diego, Calif.), and the number of viable cells was determined with the […] 96® AQueous One solution cell proliferation assay (PROMEGA®, Madison, Wis.). For HMC1.1 cell stimulation, cells were serum starved overnight in RPMI supplemented with 0.1% bovine serum albumin, L-glutamine, and penicillin/streptomycin. The following day, cells were stimulated for five minutes with 100 ng/ml recombinant stem cell factor (Peprotech, Rocky Hill, N.J.).
(§2) For tyrosine kinase siRNA library knockdown experiments, a Student's t test was carried out for each well in comparison to both single and pooled non-specific siRNA controls. The mean of the two-tailed p-value was determined for consideration of significance and data points with p-value less than 0.05 and mean value less than 70% of non-specific controls were considered significant. For cell proliferation assays, a Student's t test was carried out for each dose point comparing HMC1.1 to K562 cell viability.

Series [2] relates to K562 cells. Briefly: MTS proliferation assay with small-molecule kinase inhibitors, K562 control cells. In kind it is cell-based. The conditions noted are these: concentrations up to and including 10 μM. As to the method:
as §1, §2
In general terms: Tetrazolium assays rely on reduction of a dye to a coloured formazan, in cell work by metabolically active cells.

The test system of series [3] is HEL cells. Briefly: MTS proliferation assay with kinase inhibitors, HEL cells. It counts as cell-based. As to conditions: HEL cells (JAK2 V617F), 72 hours. Here is the method:
as §1
(§3) 96 AQueous One solution cell proliferation assay (PROMEGA®). […] Total viable cells were determined every day for 1 week using PI exclusion on a Guava cell counter (GUAVA TECHNOLOGIES®). […] Ten days later, colonies were counted manually or using a GELCOUNT® automated colony counter (OXFORD OPTRONIX®, Oxford, UK).

In series [4] the test system is primary cells from patient samples. In words: Colony assay of primary patient cells in methocult. In kind it is cell-based, human. The conditions noted are these: ten days. Here is the method: For determination of factor-independent growth, parental BA/F3 cells as well as BA/F3 cells expressing […], or W515L were washed three times and 1 million cells were seeded into triplicate wells of a 6-well plate in R10. Total viable cells were determined every day for 1 week using PI exclusion on a Guava cell counter (GUAVA TECHNOLOGIES®). For colony assays, 200,000 primary cells from patient samples were incubated in the presence of dose gradients of AG490, SU11248, or PTK787 in methocult containing IL-3, GM-CSF, and SCF ([…] TECHNOLOGIES®). Ten days later, colonies were counted manually or using a GELCOUNT® automated colony counter (OXFORD OPTRONIX®, Oxford, UK). For siRNA functional screens on patient samples, a Student's t test was carried out for each well in comparison to both single and pooled non-specific siRNA controls. The mean of the two-tailed p-value was determined for consideration of significance. […] For cell proliferation, cell viability, and colony assays, a Student's t test was carried out for each dose or time point compared with the relevant control cell line or the no drug control.

Series [5] deals with BA/F3 cells expressing MPL W515L. Briefly: Proliferation assay, factor-independent BA/F3 cells expressing MPL W515L. The conditions noted are these: three days. It counts as cell-based. As to the method:
as §3
(§4) MPL was then cloned into a Gateway compatible version of MSCV-IRES-GFP (MIG) by performing an LR recombination reaction. […] One milliliter of viral supernatant was mixed with polybrene (5 mg/ml), HEPES (7.5 mM), and 10^6 BA/F3 cells and placed in a centrifuge at 2500 RPM for 90 minutes at 30° C.

Series [6] concerns primary cells from patient samples. In words: Cell viability assay (MTS) of primary patient cells with inhibitor dose gradients. In kind it is cell-based, human. As to conditions: cells from CMML patient 07-079, three days.
Series [7] deals with BA/F3 cells expressing MPL 1886InsGG. In words: Proliferation assay, factor-independent BA/F3 cells expressing MPL 1886InsGG. In kind it is cell-based. As to conditions: factor-independent BA/F3 MPL 1886InsGG, three days. As to the method:
as §3, §4

Series [8] concerns Patient 07-079, ASM with associated CMML. Briefly: Midostaurin treatment of patient 07-079. As to conditions: patient 07-079, midostaurin 50 mg bid, briefly in combination with hydroxyurea. In kind it is in vivo, human.
Protocol: White blood cell counts were monitored over 9 days. Normal white blood cell counts range from 4−12×10^3 per ml. […] Cells were then stimulated for 15 minutes with thrombopoietin (10 ng/ml) and cell lysates were subjected to immunoblot analysis for phospho or total-JAK2 as well as β-actin. […] Cell proliferation was determined after three days. Values represent the percent mean (normalized to untreated control wells)±s.e.m. (n=3).
The target of series [9] is MPL^1886InsGG (thrombopoietin receptor with two base-pair GG insertion in exon 12) (human) (UniProt P40238). In words: cell-based or functional assay. The conditions noted are these: scale: fold lower dose of thrombopoietin than MPL^WT.

Seven compounds from patent publication US20090312194A1, “SELECTION OF PERSONALIZED CANCER THERAPY REGIMENS USING INTERFERING RNA FUNCTIONAL SCREENING” (OREGON HEALTH & SCIENCE UNIVERSITY, priority 2008, published 2009) can be followed below.

For orientation: IC50 means the concentration needed to halve the response being measured.

For `COc1cc2ncnc(Nc3ccc(Oc4ccccc4)cc3)c2cc1OC` [SRC inhibitor I], the IC50 in [1] was 5 µM.

Turning to JAK inhibitor I, in series [1], the IC50 amounted to 5 µM. The “viability in combination with PP2” value in series [1] (JAK inhibitor I dose range plus 1.5 μM PP2, compared with JAK inhibitor alone) was “lower viability readings at all dose points”. For the same compound, in series [1] (maximal reduction despite increasing concentrations), the “reduction of viability and proliferation” value was approximately 50%. The sensitivity to inhibitor result in series [2] was “resistant”.

In the case of `N#C/C(=C\c1ccc(O)c(O)c1)C(=O)NCc1ccccc1` [AG-490], the figures for the IC50 in series [3] and in series [1] were 45 µM and more than 50 µM, respectively. In addition, the “sensitivity in colony assay” value in series [4] (cells from CMML patient 07-079, methocult) is “Strong sensitivity”. In addition, the sensitivity to inhibitor entry in series [5] and in [7] was “strong sensitivity” in each case. The “sensitivity in cell viability assay” value in series [6] is reported as “Strong sensitivity”.

In the case of `CO[C@@H]1[C@H](N(C)C(=O)c2ccccc2)C[C@H]2O[C@]1(C)n1c3ccccc3c3c4c(c5c6ccccc6n2c5c31)C(=O)NC4` [midostaurin], the “period to normalization of WBC counts” value in series [8] is on record as 5 days.

In series [1], `CC(C)(C)n1nc(-c2ccc(Cl)cc2)c2c(N)ncnc21` [PP2] returned an IC50 of 1.5 µM.

Take `Clc1ccc(Nc2nnc(Cc3ccncc3)c3ccccc23)cc1` [PTK787]: in series [4] (cells from AML patient 07-008, methocult with IL-3, GM-CSF, SCF), the colony formation result is reported as “blocked by each drug at low nanomolar concentrations”.

In [9], “recombinant thrombopoietin (Peprotech) (ligand)” registered a phosphorylation of JAK2, STAT3, STAT5, ERK and AKT (immunoblot) after thrombopoietin stimulation of BA/F3 cells of 10.
